What is called IC50 is the concentration that gives 50% inhibition. A low value points to greater potency in that assay. As a reminder, the EC50 is the concentration at which the effect is half-maximal. A low value points to a more potent agent.

Activity calls are given as the source filed them. No cut-off for these calls is given here. A value given as a limit tells only on which side of the number the result lay.

The subject of data set [1] is H4. Description: Increase in beta amyloid protein 38 in human H4 cells overexpressing APP695 at 40 uM. It is filed as cell-based.
A short description of data set [2]: Inhibition of beta amyloid protein 42 in human H4 cells overexpressing APP695. It is filed as cell-based.
Data set [3] can be described thus: Inhibition of beta amyloid protein 40 in human H4 cells overexpressing APP695. The class given is cell-based.
Data set [4] has as its system H4. As to the kind of experiment: Increase in beta amyloid protein 38 in human H4 cells overexpressing APP695 at 160 uM. The class given is cell-based.
A short description of data set [5]: Inhibition of beta amyloid protein 38 in human H4 cells overexpressing APP695. It is filed as cell-based.
For data set [6], the system named is H4. As to the kind of experiment: Increase in beta amyloid protein 38 in human H4 cells overexpressing APP695 at 200 uM. It is filed as cell-based.
Data set [7] concerns H4. Description: Increase in beta amyloid protein 38 in human H4 cells overexpressing APP695 at 150 uM. It is filed as cell-based.
In data set [8] the test system is H4. Description: Cytotoxicity against human H4 cells at 40 uM. It is filed as cell-based. The settings on record: h4, 40 µM.
Data set [9] concerns the target Prostaglandin G/H synthase 1 (Homo sapiens) (UniProt P23219). Description: Activity at COX1 at 10 uM.

Sequence of Prostaglandin G/H synthase 1 (Homo sapiens) (P23219 whole entry): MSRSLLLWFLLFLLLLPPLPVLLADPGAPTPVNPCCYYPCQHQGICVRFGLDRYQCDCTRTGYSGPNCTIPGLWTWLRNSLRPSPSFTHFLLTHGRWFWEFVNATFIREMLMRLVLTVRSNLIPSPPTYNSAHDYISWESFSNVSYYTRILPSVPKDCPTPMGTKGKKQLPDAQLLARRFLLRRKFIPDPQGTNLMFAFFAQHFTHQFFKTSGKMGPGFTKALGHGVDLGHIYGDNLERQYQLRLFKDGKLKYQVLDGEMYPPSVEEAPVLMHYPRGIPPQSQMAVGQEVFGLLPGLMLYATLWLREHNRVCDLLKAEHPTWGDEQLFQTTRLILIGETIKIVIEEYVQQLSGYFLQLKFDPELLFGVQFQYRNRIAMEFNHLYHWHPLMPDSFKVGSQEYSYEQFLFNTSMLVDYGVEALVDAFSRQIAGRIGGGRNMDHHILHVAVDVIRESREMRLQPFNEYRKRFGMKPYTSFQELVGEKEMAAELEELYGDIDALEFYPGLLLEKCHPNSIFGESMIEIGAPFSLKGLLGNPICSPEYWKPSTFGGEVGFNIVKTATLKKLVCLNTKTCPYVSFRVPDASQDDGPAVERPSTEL

For `CC(C(=O)O)c1ccc2c3cc(Cl)ccc3n(S(=O)(=O)c3ccccc3F)c2c1` (configuration not stated), in the data set on H4 [1], the result was inactive. In addition, the IC50 in [2] is above 40 µM.

For the compound `CCCc1ccc(S(=O)(=O)n2c3ccc(Cl)cc3c3ccc(C(C)C(=O)O)cc32)cc1` (configuration not stated), in the data set on H4 [1], the outcome was inactive. The IC50 in data set [2] and in data set [3] was above 40 µM in each case.

With `CC(C(=O)O)c1ccc2c3cc(Cl)ccc3n(S(=O)(=O)c3ccccc3)c2c1` (configuration not stated), the result in the data set with H4 [1] was inactive. In data set [2], the half-maximal inhibitory concentration (IC50) was above 40 µM.

For `CCCCCCCCn1c2ccc(Cl)cc2c2ccc(C(C)C(=O)O)cc21` (configuration not stated), the outcome in the data set with H4 [1] was inactive. Besides, the IC50 in data set [2] is 6.9 µM; in data set [3], above 40 µM.

As for `CC(C(=O)O)c1ccc2c3cc(Cl)ccc3n(S(=O)(=O)c3cc(F)cc(F)c3)c2c1` (configuration not stated), in the data set on H4 [1], the result was inactive. In addition, the IC50 in [2] is above 40 µM.

`CCCCCCCCS(=O)(=O)n1c2ccc(Cl)cc2c2ccc(C(C)C(=O)O)cc21` (configuration not stated): the outcome in the data set with H4 [1] was inactive. The values for the IC50 in data set [2] and in data set [3] were 25 µM and above 40 µM, respectively.

Take `CC(C(=O)O)c1ccc2c3cc(Cl)ccc3n(S(=O)(=O)c3cccc(F)c3)c2c1` (configuration not stated): the outcome in the data set on H4 [1] was inactive. The compound also returned an IC50 in data set [2] above 40 µM.

For the compound `CC(C(=O)O)c1ccc2c3cc(Cl)ccc3n(S(=O)(=O)c3cccc(Cl)c3)c2c1` (configuration not stated), in the data set on H4 [1], the outcome was inactive. In [2], this compound came in with an IC50 above 40 µM.

In the case of `CC(C(=O)O)c1ccc2c(c1)[nH]c1ccc(Cl)cc12` (racemic) [CARPROFEN], the result in the data set on H4 [4] was inactive. Further, the results for the half-inhibitory concentration (IC50) in data set [5], in data set [2] and in data set [3] were 78 µM, 76 µM and 133 µM, respectively.

With `CC(C(=O)O)c1ccc2c3cc(Cl)ccc3n(S(=O)(=O)c3ccc(Cl)cc3)c2c1` (configuration not stated), the result in the data set on H4 [1] was inactive. In data set [2], this compound yielded an IC50 above 40 µM.

`CC(C(=O)O)c1ccc2c3cc(Cl)ccc3n(S(=O)(=O)c3ccc([N+](=O)[O-])cc3)c2c1` (configuration not stated): the outcome in the data set with H4 [1] was inactive. The IC50 in [2] was above 40 µM.

`CC(C(=O)O)c1ccc2c3cc(Cl)ccc3n(S(=O)(=O)c3cc(C(F)(F)F)cc(C(F)(F)F)c3)c2c1` (configuration not stated): the outcome with H4 [6] was inactive. Besides, the concentration for half-maximal inhibition (IC50) in [2] is 11 µM; in [3], above 30 µM.

In the case of `CC(C(=O)O)c1ccc2c3cc(Cl)ccc3n(S(=O)(=O)c3ccccc3Br)c2c1` (configuration not stated), in the data set on H4 [1], the outcome was inactive. Also, in data set [2], half-maximal inhibition (IC50) was put at 40 µM.

As for `CC(C(=O)O)c1ccc2c3cc(Cl)ccc3n(S(=O)(=O)c3ccc(C#N)cc3)c2c1` (configuration not stated), in the data set on H4 [1], the result was inactive. The same compound showed an IC50 in data set [2] above 40 µM.

For the compound `CC(C(=O)O)c1ccc2c3cc(Cl)ccc3n(Cc3cccc([N+](=O)[O-])c3)c2c1` (configuration not stated), in the data set on H4 [1], the result was inactive. Besides, the values for the IC50 in [2] and in [3] were 22 µM and above 40 µM, respectively.

With `CC(C(=O)O)c1ccc2c3cc(Cl)ccc3n(Cc3cccc(OC(F)(F)F)c3)c2c1` (configuration not stated), in the data set on H4 [1], the outcome was inactive. Further, the values for the IC50 in [2] and in data set [3] were 7.5 µM and above 40 µM, respectively.

For `CC(C(=O)O)c1ccc2c3cc(Cl)ccc3n(S(=O)(=O)c3cc(Br)c(Br)s3)c2c1` (configuration not stated), the result with H4 [1] was inactive. The compound further yielded an IC50 in data set [2] above 40 µM.

The compound `Cc1ccc(S(=O)(=O)n2c3ccc(Cl)cc3c3ccc(C(C)C(=O)O)cc32)cc1` (configuration not stated) had a 50% effective concentration (EC50) in data set [5] of 43 µM. Besides, in the data set with H4 [6], the outcome was inactive. Besides, the 50% inhibitory concentration (IC50) in data set [2] is 56 µM; in data set [3], above 100 µM.

With `CC(C(=O)O)c1ccc2c3cc(Cl)ccc3n(S(=O)(=O)c3cccc([N+](=O)[O-])c3)c2c1` (configuration not stated), the outcome in the data set with H4 [1] was inactive. The compound also displayed an IC50 in data set [2] of 39 µM.

Regarding `COc1cccc(Cn2c3ccc(Cl)cc3c3ccc(C(C)C(=O)O)cc32)c1` (configuration not stated), the outcome in the data set on H4 [1] was inactive. Besides, the IC50 was 39 µM in data set [2] and above 40 µM in data set [3].

As for `CC(C(=O)O)c1ccc2c3cc(Cl)ccc3n(S(=O)(=O)c3ccc(Br)cc3)c2c1` (configuration not stated), the outcome with H4 [1] was inactive. Moreover, the IC50 in data set [2] was above 40 µM.

Take `CC(C(=O)O)c1ccc2c3cc(Cl)ccc3n(Cc3cccc(NC(=O)CCCC[C@@H]4SC[C@@H]5NC(=O)N[C@@H]54)c3)c2c1` (some centres not stated): in the data set with H4 [7], the result was inactive. Also, the Activity result with H4 [8] was “Toxic”. For the same compound, the IC50 in [2] was 88 µM; in data set [3] it was above 150 µM.

On to `CC(C(=O)O)c1ccc2c3cc(Cl)ccc3n(S(=O)(=O)c3ccc(F)cc3)c2c1` (configuration not stated), for which the result with H4 [1] was inactive. In addition, the IC50 in [2] was above 40 µM.

With `CC(C)c1cc(C(C)C)c(S(=O)(=O)n2c3ccc(Cl)cc3c3ccc(C(C)C(=O)O)cc32)c(C(C)C)c1` (configuration not stated), in data set [5], the EC50 worked out at 9.3 µM. Moreover, in the data set on H4 [8], the Activity entry is on record as “Toxic”. The results for the IC50 in [2] and in [3] were 8.5 µM and above 20 µM, respectively.

In the case of `CCCCCCCCCn1c2ccc(Cl)cc2c2ccc(C(C)C(=O)O)cc21` (configuration not stated), the EC50 in [5] turned out to be 8.1 µM. Also, the values for the IC50 in [2] and in [3] were 3 µM and above 40 µM, respectively.

Take `CCCCCCCCCCn1c2ccc(Cl)cc2c2ccc(C(C)C(=O)O)cc21` (configuration not stated): in data set [5], the EC50 is 5.8 µM. Moreover, the IC50 was 2.9 µM in data set [2] and above 40 µM in data set [3]. Moreover, the outcome in data set [9] was inactive.

As for `CC(C(=O)O)c1ccc2c3cc(Cl)ccc3n(S(=O)(=O)c3ccc(-c4ccccc4)cc3)c2c1` (configuration not stated), the outcome in the data set on H4 [1] was inactive. In data set [2], this compound returned an IC50 of 37 µM.

Source of the values: ChEMBL document CHEMBL1138209, “Scaffold of the cyclooxygenase-2 (COX-2) inhibitor carprofen provides Alzheimer gamma-secretase modulators” (J Med Chem, 2006).
